# According to US20150335610A1, “PDK4 INHIBITOR AND USE THEREOF” (priority 2012, published 2015):
# Legend:
# cells cancerated by Ras = assay: Anchorage-independent sphere growth of cells cancerated by Ras; type: cell-based; details: at μM to 10 μM order
# PDK4 = PDK4 (Homo sapiens, UniProt Q16654); assay: PDK4-inhibitory activity by off-chip mobility shift assay (phosphorylation of PDH E1 subunit); type: biochemical; details: for IC50: phosphorylation of E1 subunit of PDH, 100 μM ATP, human recombinant PDK
# Method: The PDK2 and PDK4-inhibitory activities were determined by measuring the phosphorylation of the E1 subunit of PDH in the presence of 100 μM ATP.
# 1) 5 μL of 4-fold concentrated solutions of test substances, 5 μL of 4-fold concentrated solutions of substrates (recombinant human PDH)/ATP/metal, and 10 μL of 2-fold concentrated solutions of human recombinant PDK were prepared with an assay buffer (20 mM HEPES, 0.01% Triton X-100, 2 mM DTT, pH 7.5) and then were mixed in the wells of a polypropylene 384-well plate, followed by reactions for five hours at room temperature.
# 2) Reactions were terminated by adding 60 μL of Termination Buffer (QuickScout Screening Assist MSA; Carna Biosciences, Inc.).
# 3) Peptide substrates and phosphorylated peptides in the reaction solutions were separated by LabChip3000 system (Caliper Life Science) and quantified (gel shift assay). The phosphorylation activity was assessed by product ratios (P/(P+S)) calculated from the peptide substrate peak height (S) and the phosphorylated peptide peak height (P).
# 4) The inhibitory percentage was calculated as follows.
# normal cells = assay: Anchorage-independent growth of normal cells; type: cell-based; details: even at the order of several tens of μM
# HeLaS3 cells = assay: Soft agar colony formation assay of cancer cells HeLaS3; type: cell-based; details: at 3 μM; eight days of culture; FIG. 14
# Method: A conventional method was employed for a soft agar colony formation assay of cancer cells HeLaS3 (C. Oneyama et. al. Genes to Cells 2008; 13: 1 to 129). The HeLaS3 cells (4×10^4) were mixed with 3 ml of soft agar medium (Dulbecco modified Eagle's medium, 10% calf serum, 0.36% agar) and poured into a well of 6 cm-cell culture plate, which was added 5 ml of the base agar medium (Dulbecco modified Eagle's medium, 10% calf serum, 0.7% agar) in advance. After eight days of culture in a carbon dioxide gas incubator at 37° C., colonies were stained with MTT (3-(4,5-dimethylthiazol-2-yl)-2,5-diphenyltetrazolium bromide).
# [1] = background art, Non-Patent Literature 4; cited from earlier work
# [2] = system: pyruvate dehydrogenase (PDH); type: in vivo, mouse; details: KIS7 2.8 mg/kg/day, DCA 56 mg/kg/day i.p., FIG. 10
# Chain of PDK4 (Q16654 whole entry): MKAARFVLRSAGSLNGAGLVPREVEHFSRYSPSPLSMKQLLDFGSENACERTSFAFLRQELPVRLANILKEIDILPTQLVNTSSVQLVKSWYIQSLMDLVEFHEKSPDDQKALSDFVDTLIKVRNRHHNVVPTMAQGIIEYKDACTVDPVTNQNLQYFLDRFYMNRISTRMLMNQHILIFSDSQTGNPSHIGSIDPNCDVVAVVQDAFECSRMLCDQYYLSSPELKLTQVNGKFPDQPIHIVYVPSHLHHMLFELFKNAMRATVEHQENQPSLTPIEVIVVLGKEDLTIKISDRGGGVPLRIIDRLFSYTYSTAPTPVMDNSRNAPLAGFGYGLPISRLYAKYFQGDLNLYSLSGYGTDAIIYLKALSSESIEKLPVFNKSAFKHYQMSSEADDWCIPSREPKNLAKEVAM
SMILES,anchorage-independent sphere growth of cells cancerated by Ras (cells cancerated by Ras),IC50 (PDK4),anchorage-independent growth of normal cells (normal cells),colony formation of HeLaS3 in soft agar (HeLaS3 cells),side effects [1],PDH enzyme activity in liver tissue [2],dose inhibiting PDK4 compared with DCA and Radicicol (PDK4; FIG. 4),"effect on PDK4 activity (activation or inhibition) (PDK4; comparison with known PDK inhibitory substances, FIG. 4)"
"Cc1cccc2c3c(ccc12)C1=C(C(=O)C3=O)[C@@H](C)CO1 [KIS116, dihydrotanshinone I]",suppressed the anchorage-independent sphere growth,< 4 µM,did not inhibit,–,–,–,–,–
Cc1cc2c(C(C)C)c(O)c(O)c(/C=N/c3ccccc3C(=O)O)c2c(O)c1-c1c(C)cc2c(C(C)C)c(O)c(O)c(/C=N/c3ccccc3C(=O)O)c2c1O [KIS28],–,13.2 µM,–,–,–,–,–,–
"C[C@H]1COC2=C1C(=O)C(=O)c1c2ccc2c1CCCC2(C)C [KIS37, cryptotanshinone]",suppressed the anchorage-independent sphere growth,11 µM,did not inhibit,inhibited the colony formation,–,–,–,–
"O=C(O)C(Cl)Cl [DCA, dichloroacetic acid, reference compound]",–,–,–,–,severe side effects such as neurotoxicity,equivalent PDH activities to non-infected mice,–,–
"Cc1cc2c(C(C)C)c(O)c(O)c(C=O)c2c(O)c1-c1c(C)cc2c(C(C)C)c(O)c(O)c(C=O)c2c1O [KIS7, gossypol]",suppressed the anchorage-independent sphere growth,4 µM,did not inhibit,inhibited the colony formation,–,equivalent PDH activities to non-infected mice,far lower dose as compared with DCA and Radicicol,inhibited PDK4
"CC1(C)CCC2=C(O1)c1ccccc1C(=O)C2=O [KIS24, β-lapachone]",suppressed the anchorage-independent sphere growth,3 µM,–,inhibited the colony formation,–,–,–,–
